Assay in all cases: growth of human tumour cells (NCI), 48 h
For experiment [1], the system named is 786-0 renal.
In experiment [2] the test system is BT-549 breast.
Experiment [3] concerns CAKI-1 renal.
For experiment [4], the system named is CCRF-CEM leukemia.
Experiment [5] relates to EKVX NSCLC.
Experiment [6] relates to HOP-62 NSCLC.
The test system of experiment [7] is HS 578T breast.
Experiment [8] concerns M14 melanoma.
In experiment [9] the test system is MOLT-4 leukemia.
Experiment [10] concerns OVCAR-4 ovarian.
The subject of experiment [11] is PC-3 prostate.
In experiment [12] the test system is RPMI-8226 leukemia.
The test system of experiment [13] is SF-295 CNS.
Experiment [14] concerns SF-539 CNS.
Experiment [15] has as its system SK-MEL-2 melanoma.
For experiment [16], the system named is SK-MEL-5 melanoma.
Experiment [17] relates to SW-620 colon.
For experiment [18], the system named is UACC-257 melanoma.
Experiment [19] has as its system MALME-3M melanoma.
For experiment [20], the system named is MDA-N.

The text below walks through data of PubChem BioAssay (NCI).

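Interpolation was linear, between the two tested concentrations surrounding the appropriate level; five concentrations were tested over 48 hours in 96-well plates. TGI marks complete inhibition of growth.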

For the compound `CCCCCCc1cc2cc(-c3cn4c(n3)sc3ccccc34)c(=O)oc2cc1O`, the TGI in [1], in [2], in [3], in experiment [4], in experiment [5] and in experiment [6] was above 100 µM in each case. Besides, the TGI in [7] is above 72.1 µM; in experiment [8] it was above 100 µM; in [9], above 100 µM; in experiment [10], above 100 µM; in experiment [11], above 100 µM; in experiment [12], above 100 µM. Further, the TGI in [13], in [14], in experiment [15], in experiment [16], in experiment [17] and in [18] was above 100 µM throughout.
With `O=C1C[C@@H]2[C@@H](c3ccccc3)[C@@H]3C(=O)c4ccccc4NC(=O)[C@H]3[C@]2(O)c2ccccc2N1`, the TGI in [1], in [4], in experiment [5], in [6], in experiment [8] and in experiment [19] was above 100 µM in each case. Also, the TGI in experiment [9], in experiment [10], in [12], in experiment [13], in experiment [15] and in [16] was above 100 µM throughout. This compound gave a TGI in experiment [17] above 100 µM.
With `CC(C)(C)C1=CC(=C2C=Cc3cc(O)ccc3O2)C=C(C(C)(C)C)C1=O`, the TGI came to 2.68 µM in experiment [1]; 3.55 µM in [2]; 3.11 µM in experiment [3]; 3.45 µM in [4]; 3.5 µM in experiment [5]; 4.02 µM in [6]. For the same compound, the TGI in experiment [7] is 8.22 µM; in experiment [8], 3.29 µM; in [19], 3.16 µM; in [10], 3.04 µM; in [11], 3.01 µM; in [12], 4.21 µM. Besides, the TGI in experiment [13] worked out at 3.45 µM; in experiment [14] it was 3.4 µM; in experiment [15] it was 3.09 µM; in [16] it was 2.94 µM; in [17], 3.48 µM; in experiment [18], 3.07 µM.
`CC(C)=CCC/C(C)=C/Cc1c(O)c(C)cc2c1[nH]c1cc(O)ccc12`: the TGI in experiment [1], in [4], in experiment [6], in experiment [8], in experiment [19] and in [9] was above 25 µM throughout. Besides, the TGI in [10], in experiment [12], in experiment [14], in experiment [15], in experiment [16] and in experiment [17] was above 25 µM in each case.
Turning to `COc1ccc(C2Oc3c(cccc3-c3c(-c4ccc(O)cc4)oc4cc(O)cc(O)c4c3=O)C(=O)C2O)cc1O` (stereo not drawn), the TGI in experiment [1], in experiment [2], in experiment [4], in [5], in experiment [6] and in experiment [8] was above 100 µM each time. Moreover, the TGI in [19], in [9], in experiment [10], in [11], in experiment [12] and in [13] was above 100 µM throughout. For the same compound, the TGI in experiment [16], in experiment [17] and in [18] was above 100 µM each time.
`O=C(O/N=c1/ccc(=O)/c(=N\OC(=O)c2ccccc2)c1=O)c1ccccc1`: the TGI was above 100 µM in experiment [1]; above 100 µM in experiment [3]; 89.7 µM in experiment [4]; above 100 µM in [5]; above 100 µM in experiment [6]; above 100 µM in [7]. Besides, the TGI in experiment [8], in [20], in experiment [9], in experiment [10], in experiment [11] and in experiment [12] was above 100 µM each time. Moreover, the TGI in experiment [13], in experiment [14], in experiment [16] and in experiment [17] was above 100 µM throughout.
For the compound `C=C1C2CC3CCC2C(OC(=O)c2ccccc2C(=O)O)C13` (stereo not drawn), the TGI in [1], in [3], in [4], in [5], in experiment [6] and in experiment [7] was above 100 µM in each case. The TGI in [8], in experiment [19], in experiment [20], in experiment [9], in [10] and in experiment [11] was above 100 µM each time. Moreover, the TGI in experiment [13], in [14], in [15], in [16], in [17] and in [18] was above 100 µM each time.
Take `COc1ccc(/C=C2\Sc3nnc(-c4ccccc4)n3N=C2c2cc(F)c(Cl)cc2Cl)cc1OC`: the TGI in [1], in [3], in experiment [4], in experiment [5], in experiment [6] and in [7] was above 100 µM each time. In addition, the TGI is above 100 µM in [8]; above 100 µM in experiment [20]; 68.9 µM in experiment [9]; above 100 µM in experiment [10]; above 100 µM in experiment [11]; above 100 µM in experiment [12]. Besides, the TGI was above 100 µM in [13]; above 100 µM in [14]; above 100 µM in experiment [15]; above 100 µM in [16]; 92 µM in [17]; above 100 µM in experiment [18].
